Reference: US12377069B2, “Compounds, compositions, methods of using, and methods for preparing compounds” (UNIVERSITY OF LOUISVILLE RESEARCH FOUNDATION, INC., priority 2018, dated 2025)

What was measured:
[1] = system: colon cancer cell line (SW480); assay: Proliferation assay with 5FU; conditions: Homo sapiens
[2] = system: Cyp1A1; assay: Cyp1A1 expression and enzyme activity in vitro (P450-Glo, EROD); assay type: cell-based, human; conditions: HT29, 24 h; P450-Glo and EROD
Experimental: Measurment of Cyp1A1 enzyme activities in vitro. EROD assay: HT-29 cells (15,000 cells/well) treated with vehicle, UroA and UAS03 (24 hrs), were rinsed with HBSS buffer, and then fresh HBSS buffer was added along with 5 μM of 7-ethoxyresorufin. Cells were further incubated at 37° C. for 1 h. After the incubation time, fluorescence (Exc. 530 nm, Em. 580 nm) was measured and product (resorufin) formed was calculated from calibration standard and normalized with protein concentration.
P450-Glo Cyp1A1 luminiscence assay: HT29 cells (25,000 cells/well) were plated in 48 well plate. Cell were then treated with UroA (0.1, 1, 10, 25 and 50 μM) or UAS03 (0.1, 1, 10, 25 and 50 μM) or FICZ (0.1, 1, 10, 25 and 50 nM) for 24 hrs. After treatment, cells were washed to remove any residual drugs, and fresh medium containing Cyp1A1 substrate (as per protocol provided with kit Cat. #V8751; Promega) for 3 hr. After incubation, 25 μl of culture medium was removed from each well and transferred to a 96-well white opaque plate and 25 μl of luciferin detection reagent was added to initiate the luminescence reaction and plate was incubated at room temperature for 20 min. After incubation, luminescence was recorded in luminometer. The data reported as fold change over vehicle treatment.

[3] = system: Cyp1A1; assay: Cyp1A1 enzyme activity in colon and liver microsomes of treated mice; assay type: in vivo, mouse; conditions: 1 week; for Cyp1A1 activity in liver compared to oral UroA/UAS03: i.p. daily
Experimental: Measurements of Cyp1A1 enzyme activity (Ex vivo): Mice were treated with Vehicle or UroA or UAS03, BNF or FICZ daily for one week at indicated concentration either through oral or i.p. route. After one week, mice were euthanized and the colon and liver tissues were dissected. Microsomes from these tissues were prepared using the following procedure (SINGH et al., (2013) “Evaluation of memory enhancing clinically available standardized extract of Bacopa monniera on P-glycoprotein and cytochrome P450 3A in Sprague-Dawley rats” PloS one, Vol. 8, Article e72517). For hepatic microsomes, liver was first perfused with 0.9% sodium chloride solution and excised out. Adhering blood and saline was removed by blotting on tissue paper and tissue was homogenized in tissue homogenization buffer (50 mM Tris-HCl, pH 7.4 with 250 mM sucrose). Homogenate was centrifuged at 10,000×g for 30 minutes at 4° C. supernatant obtained was further centrifuged at 105,000×g for 60 minutes at 4° C. The pellet was washed with homogenization buffer and centrifuged again at 105,000×g for 60 minutes at 4° C. The pellet was suspended in homogenization buffer and used for protein and CYP assay. For intestinal microsome preparation, intestine was removed and washed with 0.9% sodium chloride. The intestine was longitudinally cut open to expose mucosal layer and mucosa was scrapped with help of glass slide. The scraped tissue was collected in homogenization buffer (50 mM Tris-HCl buffer containing glycerol (20% v/v), protease inhibitor (1%) and heparin (3 U/ml)). This suspended mucosa was homogenized and centrifuged at 10,000×g for 20 minutes at 4° C. Supernatant obtained was further centrifuged at 105,000×g for 60 minutes at 4° C. The pellet was washed with buffer and centrifuged again at 105,000×g for 60 minutes at 4° C. The pellet was suspended homogenization buffer and used for protein and CYP enzymes assays.
Ethoxyresorufin-O-deethylase (EROD) assay: The microsomal proteins (0.5 mg) were mixed with 200 μL Tris buffer (0.1 M, pH 7.4) containing ethoxyresorufin (0.01 mM). To start reaction, NADPH (0.1 mM) was added and incubated at 37° C. for 10 min. After 10 min, reaction was terminated by adding equal volume of acetonitrile and reaction mixture was centrifuged at 13000×g for 10 min at 4° C. Supernatant was used to determine resorufin by measuring fluorescence (Ex. 530 nm, Em. 580 nm). Pure resorufin (Sigma Aldrich) was used to generate standard curve.
P450-Glo Cyp1A1 luminiscence assay: The above microsomes (20 μg) were used for P450-Glo Cyp1A1 luminiscence assays as per manufacturer's instructions.

[4] = system: mouse bone marrow derived macrophages (BMDMs); assay: LPS-induced IL-6 and TNF-α in BMDM; assay type: cell-based; conditions: LPS 50 ng/mL, six hours; compared UroA
Experimental: Measurements of IL-6 and TNF-α in BMDM: BMDM were plated in 96 (10,000 cells/well) and 12 wells (0.1×10^6 cells/well) plate for ELISA and RNA isolation. To evaluate the anti-inflammatory properties, BMDMs were stimulated with E. coli-derived lipopolysaccharides (LPS; 055:B5; Sigma) at 50 ng/mL concentration for six hours alone or in combination with UroA or UAS03 at indicated concentrations (0.01, 0.1, 1, 10, 25, 50 μM) in quadruplicates. For cytokine production via ELISA, the supernatant was collected and centrifuged at 10,000×g for 10 min at 4° C. to pellet down any cell and cytokines were quantified using IL-6 and TNF-α specific ELISA kit (Biolegend) following manufacturer's instruction.
Screening for anti-inflammatory activities: Mouse bone marrow derived macrophages (BMDM) were plated in 96 wells plate for ELISA. To evaluate the anti-inflammatory properties, BMDMs were stimulated with E. coli-derived lipopolysaccharides (LPS; 055:B5; Sigma) at 50 ng/mL concentration for six hours alone or in combination with compounds at indicated concentrations in quadruplicates. For cytokine production via ELISA, the supernatant was collected and centrifuged at 12,000 rpm for 10 min at 4° C. to pellet down any cell and cytokines were quantified using IL-6 and TNF-α specific ELISA kit (Biolegend) following manufacturer's instruction. LPS induced IL-6 or TNF-α considered as 100%.

[5] = system: AhR; assay: AhR reporter (XRE-luciferase) assay; assay type: cell-based, human; conditions: 6 h, over vehicle
Experimental: AhR Reporter assay: AhR-reported assay was performed using AhR Reporter Assay system (Indio Biosciences). The AhR Reporter cells (expressing luciferase under AhR promoter) as well as positive control MeBio (AhR ligand) compound were provided in the kit. The cells were treated with Vehicle or UroA or UAS03 or ellagic acid or MeBio for 6 hr and luminoscence was measured according to manufacture's instructions.

[6] = SW480, read-out: cell viability
[7] = i.p., UroA/UAS03 5 mg/kg/day, FICZ 1 μg/mouse/day

`O=c1[nH]cc(F)c(=O)[nH]1` [5FU, 5-Fluoro-1H,3H-pyrimidine-2,4-dione, reference compound] was tested, and the viability at 3.12 µM [1, 6] was 90%, the viability at 25 µM [1, 6] was 63% and the inhibition at 100 µM ([1]; SW480, read-out: maximum inhibition of cancer cell growth) was ≤ 60%.
`Clc1cc2c(cc1Cl)Oc1cc(Cl)c(Cl)cc1O2` [TCDD, 2,3,7,8-tetrachlorodibenzo-p-dioxin, reference compound] was tested, and the “Cyp1A1 enzyme activity in colon epithelial cells” value [2] was “increased Cyp1A1 activity even at nano molar concentrations”.
For `O=Cc1c2c(cc3c1=Nc1ccccc1-3)=Nc1ccccc1-2` [FICZ, 6-Formylindolo[3,2-b]carbazole, reference compound], the “Cyp1A1 enzyme activity in colon epithelial cells” value [2] was “increased Cyp1A1 activity even at nano molar concentrations”, the “Cyp1A1 activity in liver compared to oral UroA/UAS03” value [3] was “more Cyp1A1 activity in liver” and the “Cyp1A1 activity increase in colons” value [3, 7] was ~5 fold. The “Cyp1A1 enzyme activity induction in liver” value [3, 7] was ~30 fold.
For `O=C1/C(=N/C23CC4CC(CC(C4)C2)C3)c2cc(O)ccc2-c2ccc(O)cc21` [PKL 17], the “anti-inflammatory activities (LPS-induced IL-6 and TNF-α), analogue screening” value [4] was “effective anti-inflammatory compounds”.
For MeBio, the “induction of luciferase activity (AhR activation)” value [5] was ~15 fold.
For `O=C1C(=O)c2cc(O)ccc2-c2ccc(O)cc21` [PKL4], the “anti-inflammatory activities (LPS-induced IL-6 and TNF-α), analogue screening” value [4] was “effective anti-inflammatory compounds”.
In the case of `COc1ccc2c(c1)C(=O)C(=O)c1cc(OC)ccc1-2` [PKL 3], the “anti-inflammatory activities (LPS-induced IL-6 and TNF-α), analogue screening” value [4] is reported as “effective anti-inflammatory compounds”.
For `O=c1cc(-c2ccccc2)oc2ccc3ccccc3c12` [BNF, beta-naphthoflavone, reference compound], the “Cyp1A1 activity in liver compared to oral UroA/UAS03” value [3] was “more Cyp1A1 activity in liver”.
